Laboratory results as given in ChEMBL document CHEMBL1201862, “PubChem BioAssay data set” (2004).
Activity calls are given as the source filed them.

How the values were obtained:
[1] = biological target: Botulinum neurotoxin type A (Clostridium botulinum (strain Hall / ATCC 3502 / NCTC 13319 / Type A), UniProt P0DPI1); assay: High-throughput multiplex microsphere dose response for inhibitors of toxin protease, specifically Botulinum neurotoxin light chain A protease, compounds from Cherry Pick 02.; format: functional; details: read-out: EC50_MICROM
Chain of Botulinum neurotoxin type A (P0DPI1 2-448 limits assumed): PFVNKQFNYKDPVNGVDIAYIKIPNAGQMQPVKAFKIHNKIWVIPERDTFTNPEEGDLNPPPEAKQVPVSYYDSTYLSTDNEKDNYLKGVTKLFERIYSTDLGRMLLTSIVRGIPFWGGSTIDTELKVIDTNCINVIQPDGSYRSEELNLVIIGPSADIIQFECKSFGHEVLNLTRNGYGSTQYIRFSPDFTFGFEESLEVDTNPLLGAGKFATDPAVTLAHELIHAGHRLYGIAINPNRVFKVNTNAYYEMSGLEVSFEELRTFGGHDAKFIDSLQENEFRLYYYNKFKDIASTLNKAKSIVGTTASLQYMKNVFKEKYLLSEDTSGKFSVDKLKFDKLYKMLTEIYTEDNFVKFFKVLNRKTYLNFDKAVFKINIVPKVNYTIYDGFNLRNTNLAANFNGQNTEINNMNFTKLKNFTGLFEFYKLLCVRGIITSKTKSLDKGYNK

[2] = tested on: H4; assay: Luminescence Cell-Based Dose Response HTS to Identify Activators of 5'UTR Stem-Loop Driven Prion Protein mRNA Translation in H4 Neuroglioblastoma Cells. [Related pubchem assays: 1829 (Project Summary), 1814 (Primary HTS)]; format: functional; details: Homo sapiens
[3] = Luminescence Cell-Based Dose Response HTS to Identify Activators of Luciferase Translation or Activity in H4 […] Cells. [Related pubchem assays: 1829 (Project Summary), 1814 (Primary HTS)]; format: functional
[4] = biological target: Multidrug resistance protein CDR1 (Candida albicans, UniProt P43071); assay: inhibition of Nile Red efflux via Candida CDR1 – S. cerevisiae AD1-8u, singleplex, Cherry Pick1 hits, dose response (AID 588606); format: functional
[5] = biological target: Photoreceptor-specific nuclear receptor (Homo sapiens, UniProt Q9Y5X4); format: functional, cell-based;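 also: CHO-S cells with Gal4-NCOR and VP16-NR2E3 two-hybrid luciferase reporter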
Chain of Photoreceptor-specific nuclear receptor (Q9Y5X4 whole entry, the tested form may be a part): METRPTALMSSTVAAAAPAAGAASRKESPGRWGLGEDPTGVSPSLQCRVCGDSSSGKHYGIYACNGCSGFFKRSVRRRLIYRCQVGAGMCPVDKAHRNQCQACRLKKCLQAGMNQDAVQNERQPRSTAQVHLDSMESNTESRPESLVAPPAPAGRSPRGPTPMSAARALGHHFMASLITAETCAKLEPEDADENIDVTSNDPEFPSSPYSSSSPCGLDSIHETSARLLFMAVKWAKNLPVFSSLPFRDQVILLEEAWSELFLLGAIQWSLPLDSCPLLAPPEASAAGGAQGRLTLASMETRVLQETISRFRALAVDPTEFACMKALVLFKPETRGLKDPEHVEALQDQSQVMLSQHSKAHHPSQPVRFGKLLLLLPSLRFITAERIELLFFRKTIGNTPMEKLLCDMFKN

[6] = biological target: Latent membrane protein 1 (Human herpesvirus 4 (strain B95-8), UniProt P03230); assay: LMP1 TES1 pathway selectivity over dsRED control – imaging, HEK293T, dual-color eGFP/dsRED, cherry-picks, selectivity assay for LMP1 NF-kB inhibitor project, dose response (AID 588398); format: functional, cell-based
Chain of Latent membrane protein 1 (P03230 whole entry): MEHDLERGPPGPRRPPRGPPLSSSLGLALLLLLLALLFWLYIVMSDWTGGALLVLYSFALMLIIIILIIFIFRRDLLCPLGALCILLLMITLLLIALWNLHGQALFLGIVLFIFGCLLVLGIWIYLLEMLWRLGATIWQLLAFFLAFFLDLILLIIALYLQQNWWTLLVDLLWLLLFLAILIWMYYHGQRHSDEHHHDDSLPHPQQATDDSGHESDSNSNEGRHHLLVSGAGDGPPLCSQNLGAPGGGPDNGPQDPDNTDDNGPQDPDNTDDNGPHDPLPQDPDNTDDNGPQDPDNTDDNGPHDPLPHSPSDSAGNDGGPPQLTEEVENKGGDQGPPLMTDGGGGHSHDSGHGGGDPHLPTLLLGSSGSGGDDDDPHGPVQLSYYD

[7] = tested on: HEK293; assay: EBV LMP1 TES2 canonical NF-kB signalling blockers – cell-based, HEK293, luciferase, cherry-pick, dose response (AID 588343); format: functional; details: Homo sapiens
[8] = suppression of NO production in INS-1E cells – cell-based, Griess absorbance, dry powder, set 3, dose response (AID 488870); format: functional; details: Rattus norvegicus
[9] = tested on: INS1; assay: INS-1E mitochondrial potential rescue under cytokines – cell-based, JC-1 fluorescence ratio, dry powder, dose response (AID 488931); format: functional; details: Rattus norvegicus
[10] = tested on: INS1; assay: suppression of NO production in INS-1E cells – cell-based, Griess absorbance, dry powder, set 2, dose response (AID 488868); format: functional; details: Rattus norvegicus
[11] = tested on: INS1; assay: beta-cell survival under cytokine stress – INS-1E, ATP luminescence, dry powder, dose response (AID 488844); format: functional, cell-based; details: Rattus norvegicus
[12] = biological target: Casein kinase I isoform alpha (Homo sapiens, UniProt P48729); format: functional
Chain of Casein kinase I isoform alpha (P48729 whole entry, canonical isoform): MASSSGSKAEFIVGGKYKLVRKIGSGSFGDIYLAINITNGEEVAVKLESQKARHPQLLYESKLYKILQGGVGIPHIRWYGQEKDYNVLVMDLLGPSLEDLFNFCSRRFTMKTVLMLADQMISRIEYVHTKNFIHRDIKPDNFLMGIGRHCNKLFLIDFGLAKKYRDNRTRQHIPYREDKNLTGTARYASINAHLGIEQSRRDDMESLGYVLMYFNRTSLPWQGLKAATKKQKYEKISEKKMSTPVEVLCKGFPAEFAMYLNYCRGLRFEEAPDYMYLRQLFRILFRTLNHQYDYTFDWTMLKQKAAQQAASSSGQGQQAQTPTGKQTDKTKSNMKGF

[13] = biological target: Dual specificity protein kinase CLK4 (Homo sapiens, UniProt Q9HAZ1); format: functional
Chain of Dual specificity protein kinase CLK4 (Q9HAZ1 whole entry): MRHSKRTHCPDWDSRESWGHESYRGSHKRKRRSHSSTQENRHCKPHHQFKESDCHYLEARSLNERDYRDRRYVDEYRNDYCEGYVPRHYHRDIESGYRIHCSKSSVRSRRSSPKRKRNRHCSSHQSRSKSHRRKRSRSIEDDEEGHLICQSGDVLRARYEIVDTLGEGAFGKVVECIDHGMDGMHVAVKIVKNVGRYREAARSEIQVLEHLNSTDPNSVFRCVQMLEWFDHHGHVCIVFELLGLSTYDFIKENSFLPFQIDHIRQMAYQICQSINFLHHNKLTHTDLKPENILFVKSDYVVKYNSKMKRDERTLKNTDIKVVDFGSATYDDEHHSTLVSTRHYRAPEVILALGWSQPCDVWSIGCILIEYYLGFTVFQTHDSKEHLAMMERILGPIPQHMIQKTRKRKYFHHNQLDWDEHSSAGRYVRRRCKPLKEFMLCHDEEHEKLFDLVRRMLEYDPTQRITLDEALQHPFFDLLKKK

[14] = biological target: Focal adhesion kinase 1 (Homo sapiens, UniProt Q05397); format: functional;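 also: measured as one member of a kinome panel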
[15] = biological target: Sphingosine 1-phosphate receptor 2 (Homo sapiens, UniProt O95136); assay: activation of human S1P2 receptor – cell-based, fluorescence, set 2, counter-screen for S1P4 agonist project, late-stage follow-up (AID 504873); format: functional
Chain of Sphingosine 1-phosphate receptor 2 (O95136 whole entry): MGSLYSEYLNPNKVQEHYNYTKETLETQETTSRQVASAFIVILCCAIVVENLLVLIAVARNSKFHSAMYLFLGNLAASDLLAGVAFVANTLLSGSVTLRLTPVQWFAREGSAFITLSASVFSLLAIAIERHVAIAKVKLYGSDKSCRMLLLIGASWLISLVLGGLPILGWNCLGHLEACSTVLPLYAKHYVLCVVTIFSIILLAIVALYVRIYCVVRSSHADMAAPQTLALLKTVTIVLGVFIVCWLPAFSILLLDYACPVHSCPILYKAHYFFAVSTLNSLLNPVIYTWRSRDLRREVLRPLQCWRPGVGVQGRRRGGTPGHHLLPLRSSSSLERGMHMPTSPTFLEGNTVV

[16] = biological target: Sphingosine 1-phosphate receptor 1 (Homo sapiens, UniProt P21453); assay: Late-stage fluorescence-based dose-response cell-based counterscreen assay to identify agonists of the Sphingosine 1-Phosphate Receptor 4 (S1P4): Sphingosine 1-Phosphate Receptor 1 (S1P1) agonist assay Set 2.; format: functional
Chain of Sphingosine 1-phosphate receptor 1 (P21453 whole entry): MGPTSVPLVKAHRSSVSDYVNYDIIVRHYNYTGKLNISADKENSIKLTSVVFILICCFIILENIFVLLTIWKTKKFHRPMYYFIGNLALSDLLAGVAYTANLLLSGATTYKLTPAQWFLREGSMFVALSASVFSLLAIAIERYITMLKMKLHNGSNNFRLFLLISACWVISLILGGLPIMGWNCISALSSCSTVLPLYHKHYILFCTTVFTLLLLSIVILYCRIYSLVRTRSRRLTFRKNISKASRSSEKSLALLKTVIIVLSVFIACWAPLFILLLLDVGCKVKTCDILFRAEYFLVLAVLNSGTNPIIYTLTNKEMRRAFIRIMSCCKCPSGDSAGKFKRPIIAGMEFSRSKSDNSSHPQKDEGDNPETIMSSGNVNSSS

[17] = biological target: Sphingosine 1-phosphate receptor 5 (Homo sapiens, UniProt Q9H228); assay: activation of human S1P5 receptor – cell-based, fluorescence, set 2, counter-screen for S1P4 agonist project, late-stage follow-up (AID 504867); format: functional
Chain of Sphingosine 1-phosphate receptor 5 (Q9H228 whole entry): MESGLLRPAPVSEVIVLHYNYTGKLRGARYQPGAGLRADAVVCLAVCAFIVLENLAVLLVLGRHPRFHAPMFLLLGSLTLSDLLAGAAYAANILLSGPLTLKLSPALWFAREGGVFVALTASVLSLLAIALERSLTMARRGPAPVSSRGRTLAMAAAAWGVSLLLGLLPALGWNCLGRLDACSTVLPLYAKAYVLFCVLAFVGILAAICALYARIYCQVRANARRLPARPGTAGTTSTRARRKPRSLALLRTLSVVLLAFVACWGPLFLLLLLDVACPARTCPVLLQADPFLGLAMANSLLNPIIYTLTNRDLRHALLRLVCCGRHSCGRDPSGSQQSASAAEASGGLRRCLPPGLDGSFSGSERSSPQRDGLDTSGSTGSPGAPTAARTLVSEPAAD

[18] = biological target: Sphingosine 1-phosphate receptor 3 (Homo sapiens, UniProt Q99500); assay: Late-stage fluorescence-based dose-response cell-based counterscreen assay to identify agonists of the Sphingosine 1-Phosphate Receptor 4 (S1P4): Sphingosine 1-Phosphate Receptor 3 (S1P3) agonist assay Set 2.; format: functional
Chain of Sphingosine 1-phosphate receptor 3 (Q99500 whole entry): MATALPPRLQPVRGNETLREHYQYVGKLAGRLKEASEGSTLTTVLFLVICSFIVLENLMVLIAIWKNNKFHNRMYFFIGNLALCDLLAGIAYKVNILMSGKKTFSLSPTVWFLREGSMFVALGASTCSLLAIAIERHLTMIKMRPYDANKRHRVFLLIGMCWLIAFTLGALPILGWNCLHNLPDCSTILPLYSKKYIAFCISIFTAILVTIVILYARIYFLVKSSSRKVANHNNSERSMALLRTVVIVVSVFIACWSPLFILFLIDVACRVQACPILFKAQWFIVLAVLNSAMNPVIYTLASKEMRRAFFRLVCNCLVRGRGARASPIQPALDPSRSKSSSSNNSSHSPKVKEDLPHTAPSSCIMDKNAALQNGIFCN

[19] = biological target: DNA dC->dU-editing enzyme APOBEC-3G (Homo sapiens, UniProt Q9HC16); assay: inhibition of APOBEC3G ssDNA deamination – biochemical, fluorescence, single-stranded DNA substrate, SAR follow-up (AID 602136); format: functional; details: read-out: IC50_Mean
Chain of DNA dC->dU-editing enzyme APOBEC-3G (Q9HC16 whole entry): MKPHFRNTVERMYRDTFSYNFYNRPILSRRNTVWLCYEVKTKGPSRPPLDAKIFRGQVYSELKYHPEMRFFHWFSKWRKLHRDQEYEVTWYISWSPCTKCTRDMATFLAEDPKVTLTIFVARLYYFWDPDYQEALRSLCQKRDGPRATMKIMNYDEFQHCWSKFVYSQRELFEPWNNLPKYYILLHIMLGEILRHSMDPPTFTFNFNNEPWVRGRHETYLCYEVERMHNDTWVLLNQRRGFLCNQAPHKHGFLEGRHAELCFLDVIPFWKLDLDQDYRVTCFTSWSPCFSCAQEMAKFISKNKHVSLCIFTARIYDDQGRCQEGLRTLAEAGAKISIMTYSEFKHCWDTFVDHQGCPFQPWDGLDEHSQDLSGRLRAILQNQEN

[20] = biological target: DNA dC->dU-editing enzyme APOBEC-3A (Homo sapiens, UniProt P31941); assay: SAR analysis of small molecule inhibitors of APOBEC3A DNA Deaminase via a fluorescence-based single-stranded DNA deaminase assay.; format: functional; details: read-out: IC50_Mean
Chain of DNA dC->dU-editing enzyme APOBEC-3A (P31941 whole entry): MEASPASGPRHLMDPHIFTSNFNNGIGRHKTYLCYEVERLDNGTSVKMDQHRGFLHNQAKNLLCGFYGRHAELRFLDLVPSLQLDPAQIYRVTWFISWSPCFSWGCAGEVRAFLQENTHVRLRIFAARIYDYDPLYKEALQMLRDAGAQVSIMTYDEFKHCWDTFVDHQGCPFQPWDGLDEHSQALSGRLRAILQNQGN

[21] = biological target: Apoptotic protease-activating factor 1 (Homo sapiens, UniProt O14727); assay: SAR analysis of small molecule inhibitors of Apaf-1 in a Fluorescent assay.; format: functional; details: read-out: IC50_Mean

For `Cc1onc(-c2ccccc2Cl)c1C(=O)NCc1ccc2c(c1)cc(C)n2C`, which EC50 [1] is on record?
The EC50 was 4.2 µM (active).

With `O=C(/C=C/c1ccccc1Cl)NCCc1ccccc1` as the compound, how does the EC50 [2] read?
Its EC50 is > 120 µM (not active).

What about the EC50 [3] of the same compound?
Its EC50 is 4.27 µM (active).

What about the EC50 [4] of the same compound?
Its EC50 is 0.514 µM (active).

Which results are given for `S=C(NN=Cc1ccccn1)Nc1ccccn1`?
IC50 [5]: 7.61 µM (active); AC50 [6]: 10.7 µM (active); AC50 [7]: 21.5 µM (active)

For `COc1ccc(S(=O)(=O)N(C)C[C@@H]2Oc3c(NC(=O)Nc4cccc5ccccc45)cccc3C(=O)N([C@@H](C)CO)C[C@H]2C)cc1F`, which AC50 [8] is on record?
Its AC50 is 60.8 µM (active).

What about the AC50 [9] of the same compound?
The AC50 was > 195 µM (inactive).

What about the AC50 [10] of the same compound?
Its AC50 is 26.7 µM (active).

What about the AC50 [11] of the same compound?
The AC50 was 23.2 µM (active).

For `Cc1cc(C(C)Nc2ccccc2)c2nc(N3CCOCC3)cc(=O)n2c1` (stereo unspecified), which Ki [12] is on record?
Its Ki is 2 µM (active).

And the Ki [13]?
Its Ki is 2.51 µM (active).

And the Ki [14]?
Its Ki is 2.51 µM (active).

What does the source list for `CC/N=C1/S/C(=C/c2cc(C)n(Cc3ccccc3)c2C)C(=O)N1CC`?
EC50 [15]: 3.28 µM (active); EC50 [16]: 0.185 µM (active); EC50 [17]: 0.0631 µM (active); EC50 [18]: 12.9 µM (inactive)

With `O=C1NC(=S)NC(=O)C1=Cc1ccc2c(c1)CCN2Cc1ccccc1Cl` as the compound, how does the IC50 [19] read?
Its IC50 is 77.5 µM (inactive).

What about the IC50 [20] of the same compound?
The IC50 was 9.78 µM (active).

With `CCN(CC)CCOC(=O)c1ccc(N/C=C(\C#N)c2nc(-c3ccc(Cl)c(Cl)c3)cs2)cc1` as the compound, how does the IC50 [21] read?
Its IC50 is 6.88 µM (active).
